Experiment [1] concerns the target Peroxisome proliferator-activated receptor gamma/Nuclear receptor coactivator 2 (Homo sapiens, UniProt P37231). The format is functional.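 Further: agonist potency for raising coactivator recruitment to the receptor.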
Experiment [2] deals with Peroxisome proliferator-activated receptor gamma/Nuclear receptor coactivator 1 (Homo sapiens, UniProt P37231). The format is functional.
Experiment [3] concerns the target Peroxisome proliferator-activated receptor gamma/Nuclear receptor coactivator 3 (Homo sapiens, UniProt P37231). The format is functional.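 Further: agonist potency for raising coactivator recruitment to the receptor.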
The target of experiment [4] is T1, Heat shock 70 kDa protein 1A (Homo sapiens, UniProt P0DMV8). As to the kind of experiment: small molecules displacing fluorescent ligand from Hsp70 – biochemical, fluorescence polarization, primary screen (AID 583). A general note: Polarisation of emitted light reports the rotation of a fluorescent probe.
In experiment [5] the target is T1, Heat shock 70 kDa protein 1A. As to the kind of experiment: small-molecule inhibition of Hsp70 – biochemical, TR-FRET (AID 786). (In general: TR-FRET usually uses a lanthanide donor and a delayed reading to cut background.)
In experiment [6] the target is Serine/threonine-protein phosphatase (Candida dubliniensis (strain CD36 / CBS 7987 / NCPF 3949 / NRRLY-17841) (Yeast), UniProt B9W6M3). The experiment can be described thus: blockers of CaCl2-induced CDRE-lacZ signaling – S. cerevisiae, luminescence, secondary, dose response (AID 2388).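 Further: yeast reporter cells carrying a calcineurin-responsive lacZ construct stimulated with calcium chloride; luminescent beta-galactosidase reporter signal in whole cells rather than isolated phosphatase activity; potency for inhibition where a drop in reporter signal means calcineurin blockade.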 The format is functional, cell-based.
Experiment [7] can be described thus: viability loss of HPDE-C7K cells – cell-based, fluorescence, HTS, primary screen (AID 431). The format is functional. The note with it: Homo sapiens.
A short description of experiment [8]: fluconazole-exposed Candida albicans growth modulators – fluorescence, retest, confirmation (AID 2467). The format is functional, cell-based.
For experiment [9], the target named is ATP-dependent molecular chaperone HSP82 (Candida albicans (strain WO-1) (Yeast), UniProt C4YTQ8). The experiment can be described thus: steroid-induced GRE reporter decrease in yeast – S. cerevisiae, luminescence, Hsp90 inhibitor project, dose response (AID 2400).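 Further: beta-galactosidase luminescence from glucocorticoid response element reporter as proxy for Hsp90 function; inhibitor potency where signal loss means Hsp90 inhibition.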 The format is functional, cell-based.
Experiment [10] has as its target Induced myeloid leukemia cell differentiation protein Mcl-1 (Homo sapiens, UniProt Q07820). The format is functional.
Another experiment concerns HeLa. As to the kind of experiment: Cytotoxicity counterscreen assay for transcriptional activators of heat shock protein 70 (Hsp70). [Related pubchem assays: 1203, 1252 ]. The format is functional. The note with it: Homo sapiens. A general note: The purpose of a counterscreen is to sort out artefacts and off-target activity.
Experiment [11] concerns the target T2, Heat shock factor protein 1 (Mus musculus, UniProt P38532).
T2 sequence (P38532 whole entry): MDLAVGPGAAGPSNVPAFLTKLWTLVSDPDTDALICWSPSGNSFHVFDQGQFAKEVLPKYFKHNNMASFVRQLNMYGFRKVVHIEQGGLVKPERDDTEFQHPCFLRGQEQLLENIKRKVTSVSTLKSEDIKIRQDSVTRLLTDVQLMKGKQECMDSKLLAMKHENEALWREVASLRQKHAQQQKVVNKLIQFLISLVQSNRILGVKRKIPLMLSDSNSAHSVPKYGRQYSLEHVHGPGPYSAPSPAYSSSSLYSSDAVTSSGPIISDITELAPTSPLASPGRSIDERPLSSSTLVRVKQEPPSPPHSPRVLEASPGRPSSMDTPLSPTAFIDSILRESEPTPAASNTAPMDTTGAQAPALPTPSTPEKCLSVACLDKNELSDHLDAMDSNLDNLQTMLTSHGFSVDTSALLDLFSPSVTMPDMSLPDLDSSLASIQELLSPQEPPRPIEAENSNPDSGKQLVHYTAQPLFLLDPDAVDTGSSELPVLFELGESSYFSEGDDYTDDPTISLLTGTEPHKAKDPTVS
As to the kind of experiment: enhancement of HSF1-driven luciferase signal – cell-based, NIH3T3, luminescence, dose retest, confirmation (AID 435004).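 Further: stress induced by proteasome inhibitor MG132 added 30 min after compound; luciferase reporter driven by HSF1 response element in NIH3T3 cells; actives raise luminescence as potentiators of the MG132 stress response.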 The format is functional.

Experiment [12] is described as follows: HPDE-C7 pancreatic duct cell viability loss – fluorescence, HTS (AID 430). Particulars: Homo sapiens. The format is functional, cell-based.
Experiment [13] in a line: NIH-3T3 fibroblast cytotoxicity, dose response, cytotoxicity control, cell-based, fluorescence, Alamar Blue, secondary assay (AID 2327).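 Further: NIH-3T3 mouse fibroblasts cultured with fluconazole at 8 µg/mL.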 The format is functional.
The next experiment addresses Estrogen receptor beta (Homo sapiens, UniProt Q92731). As to the kind of experiment: blockers of SRC-3 recruitment to ERβ – biochemical, ELISA, streptavidin-HRP readout, orthogonal assay, confirmation (AID 1060).
The target in experiment [14] is T3, Estrogen receptor (Homo sapiens, UniProt P03372).
T3 sequence (P03372 whole entry): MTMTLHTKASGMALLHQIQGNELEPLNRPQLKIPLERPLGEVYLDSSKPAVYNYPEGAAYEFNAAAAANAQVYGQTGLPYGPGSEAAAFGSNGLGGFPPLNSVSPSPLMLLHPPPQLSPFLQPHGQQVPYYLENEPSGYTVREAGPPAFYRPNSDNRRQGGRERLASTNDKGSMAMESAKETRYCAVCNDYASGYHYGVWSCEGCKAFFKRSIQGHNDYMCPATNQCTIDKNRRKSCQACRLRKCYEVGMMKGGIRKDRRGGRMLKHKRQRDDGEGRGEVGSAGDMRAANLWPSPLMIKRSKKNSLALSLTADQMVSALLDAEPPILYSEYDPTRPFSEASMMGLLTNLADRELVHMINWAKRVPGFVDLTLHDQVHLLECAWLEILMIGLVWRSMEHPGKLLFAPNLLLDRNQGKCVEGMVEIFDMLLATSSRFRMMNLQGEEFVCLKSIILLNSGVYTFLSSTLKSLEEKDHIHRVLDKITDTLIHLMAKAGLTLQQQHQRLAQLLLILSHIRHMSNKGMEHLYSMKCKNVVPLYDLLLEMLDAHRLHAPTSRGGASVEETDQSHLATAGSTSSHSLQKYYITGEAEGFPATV

In experiment [15] the target is T3, Estrogen receptor. As to the kind of experiment: blockers of SRC-3 recruitment to ERα – biochemical, ELISA, streptavidin-HRP readout, orthogonal assay, confirmation (AID 1079).
Another experiment relates to HT-1080. As to the kind of experiment: HT1080 cell viability loss – fluorescence readout (AID 620). The format is functional, cell-based. The note with it: Homo sapiens.
Experiment [16] can be described thus: blockers of HIV-1 envelope-mediated cell-cell fusion – cherry-pick, dose response (AID 652057). The format is functional, cell-based.
In experiment [17] the target is Luciferin 4-monooxygenase (Photinus pyralis, UniProt P08659). As to the kind of experiment: Counter Screen for Luciferase-based Assay Positives. [Related pubchem assays: 620, 618, 411 ].
Experiment [18] is described as follows: HEK-293T viability loss after treatment – luminescence, T-cell screen hits, cytotoxicity control for TCR NF-kB inhibitor project, dose response (AID 489026).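 Further: cells exposed to compound about 14 hours before the viability readout.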 The format is functional, cell-based.
Experiment [19] can be described thus: off-target signal loss in HeLa-CEM21 co-culture – HeLa F-luc CTL cells, cherry-picked, counter-screen for HIV-1 Env fusion inhibitor project, dose response (AID 652040).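 Further: potency for signal decrease marking cytotoxic or nonspecific inhibition.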 The format is functional, cell-based.
Experiment [20] can be described thus: HIV-1 AD8 envelope cell-cell fusion blockers – cherry-pick, dose response (AID 652062).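 Further: luciferase signal from cell-cell fusion driven by HIV-1 clade B AD8 Env; potency is for inhibitors of fusion seen as a drop in luminescence.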 The format is functional, cell-based.
Experiment [21] can be described thus: blockers of HIV-1 ZM109 envelope-driven cell-cell fusion – HeLa effector, CEM target cells, luciferase, cherry-pick, dose response (AID 652058).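 Further: luciferase signal from HIV-1 Env mediated cell-cell fusion of effector and target cells.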 The format is functional, cell-based.
Experiment [22] relates to Streptococcus sp. 'group A'. The experiment can be described thus: Streptococcus pyogenes SK(-)GAS viability under kanamycin – luminescence, BacTiterGlo, confirmation, counter-screen for streptokinase expression inhibitor project, dose response (AID 1900). The format is functional, organism-based.
Experiment [23] deals with Streptococcus. As to the kind of experiment: GAS UMAA2166 growth inhibition – luminescence, BacTiterGlo, counter-screen for streptokinase expression inhibitor project, dose response (AID 1915).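 Further: potency for reduction of bacterial viability or growth.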 The format is functional, organism-based.
The next experiment addresses T4, Streptokinase A (Streptococcus pyogenes serotype M1, UniProt P10520).
T4 sequence (P10520 whole entry): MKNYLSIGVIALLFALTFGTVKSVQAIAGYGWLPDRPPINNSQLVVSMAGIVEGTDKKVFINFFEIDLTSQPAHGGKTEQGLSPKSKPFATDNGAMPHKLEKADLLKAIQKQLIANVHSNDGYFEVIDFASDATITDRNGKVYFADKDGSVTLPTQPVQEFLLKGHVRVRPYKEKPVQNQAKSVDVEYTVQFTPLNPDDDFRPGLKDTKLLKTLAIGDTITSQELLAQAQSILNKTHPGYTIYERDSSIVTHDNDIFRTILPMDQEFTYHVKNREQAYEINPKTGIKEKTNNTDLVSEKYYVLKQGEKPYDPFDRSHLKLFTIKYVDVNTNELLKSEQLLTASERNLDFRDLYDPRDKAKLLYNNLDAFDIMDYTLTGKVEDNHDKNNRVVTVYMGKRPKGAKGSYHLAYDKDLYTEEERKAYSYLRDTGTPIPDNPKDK
The experiment can be described thus: viability-normalized secreted streptokinase activity reduction – plasminogen activation absorbance, OD405, dose response (AID 1914).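 Further: secreted streptokinase activity via plasminogen activation per viability signal from cell pellet.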 The format is functional, Streptococcus pyogenes M1 GAS.

Experiment [24] has as its target Epstein-Barr nuclear antigen 1 (Epstein-Barr virus (strain B95-8) (HHV-4) (Human herpesvirus 4), UniProt P03211). As to the kind of experiment: inhibition of EBV nuclear antigen 1 DNA binding – biochemical, fluorescence polarization, 1536-well, dose response (AID 2381).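 Further: fluorescence polarization of a Cy5 DNA probe bound by EBNA-1 protein.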 On the set-up: species or system human gammaherpesvirus 4.
Experiment [25] relates to Streptococcus. The experiment can be described thus: Luminescence Microorganism-Based Dose Response Follow up to Identify Compounds Cytotoxic to Streptococcus. [Related pubchem assays: 1677 (Project Summary), 1915, 1914, 1902 (Retest at Dose), 1900 (Counter Screen), 1662 (Primary HTS)]. The format is functional, organism-based.
Experiment [26] deals with Lytic switch protein BZLF1 (Epstein-Barr virus (strain B95-8) (HHV-4) (Human herpesvirus 4), UniProt P03206). As to the kind of experiment: inhibition of BZLF1 ZTA DNA binding – biochemical, fluorescence polarization, Epstein-Barr virus, 1536-well, counter-screen for EBNA-1 inhibitor project, dose response (AID 2377).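 Further: fluorescence polarization of Cy5-labelled ZRE DNA probe bound by purified Zta.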 On the set-up: species or system human gammaherpesvirus 4.

For experiment [27], the target named is G2/mitotic-specific cyclin-B1 (Homo sapiens, UniProt P14635). As to the kind of experiment: Counterscreen assay for inhibitors of Wee1 degradation: dose response cell-based assay to identify inhibitors of cyclin B degradation. [Related pubchem assays: 1410, 1321 ]. The format is functional.
The target of experiment [28] is G-protein coupled receptor 55 (Homo sapiens, UniProt Q9Y2T6). The experiment can be described thus: inhibition of LPI-stimulated GPR55 beta-arrestin translocation – imaging, U2OS, beta-arrestin-GFP, LPI agonist, primary screen (AID 2013).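 Further: antagonist potency measured as reduced agonist-driven arrestin aggregation.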 The format is functional.
For another experiment, the target named is Wee1-like protein kinase (Homo sapiens, UniProt P30291). As to the kind of experiment: Dose Response Cell-based Assay for Inhibitors of Wee1 Degradation. [Related pubchem assays: 1410, 1321 ]. The format is functional.

From ChEMBL document CHEMBL1201862, “PubChem BioAssay data set” (2004) come the findings set out here.

Activity calls are given as the source filed them.
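Wherever CC50 is given: cells exposed to compound for 16 hours before readout.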

T1 sequence (P0DMV8 whole entry): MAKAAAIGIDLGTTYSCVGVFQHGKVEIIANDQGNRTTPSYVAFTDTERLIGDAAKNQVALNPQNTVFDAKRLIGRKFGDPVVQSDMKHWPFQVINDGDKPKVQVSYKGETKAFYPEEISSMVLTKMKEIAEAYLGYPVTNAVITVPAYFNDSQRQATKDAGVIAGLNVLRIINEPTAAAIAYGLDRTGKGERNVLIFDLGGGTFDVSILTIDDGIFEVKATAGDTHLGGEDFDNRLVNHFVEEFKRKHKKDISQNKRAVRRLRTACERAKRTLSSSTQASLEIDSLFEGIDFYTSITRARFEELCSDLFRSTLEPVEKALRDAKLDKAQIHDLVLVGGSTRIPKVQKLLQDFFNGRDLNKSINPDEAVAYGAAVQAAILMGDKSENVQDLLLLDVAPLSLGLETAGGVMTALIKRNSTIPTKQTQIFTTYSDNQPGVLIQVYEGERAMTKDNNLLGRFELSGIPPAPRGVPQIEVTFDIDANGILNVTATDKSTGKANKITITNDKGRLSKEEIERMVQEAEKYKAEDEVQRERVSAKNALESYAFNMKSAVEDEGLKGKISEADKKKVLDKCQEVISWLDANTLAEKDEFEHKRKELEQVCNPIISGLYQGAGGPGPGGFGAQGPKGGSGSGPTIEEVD
Chain of Peroxisome proliferator-activated receptor gamma/Nuclear receptor coactivator 2 (P37231 whole entry): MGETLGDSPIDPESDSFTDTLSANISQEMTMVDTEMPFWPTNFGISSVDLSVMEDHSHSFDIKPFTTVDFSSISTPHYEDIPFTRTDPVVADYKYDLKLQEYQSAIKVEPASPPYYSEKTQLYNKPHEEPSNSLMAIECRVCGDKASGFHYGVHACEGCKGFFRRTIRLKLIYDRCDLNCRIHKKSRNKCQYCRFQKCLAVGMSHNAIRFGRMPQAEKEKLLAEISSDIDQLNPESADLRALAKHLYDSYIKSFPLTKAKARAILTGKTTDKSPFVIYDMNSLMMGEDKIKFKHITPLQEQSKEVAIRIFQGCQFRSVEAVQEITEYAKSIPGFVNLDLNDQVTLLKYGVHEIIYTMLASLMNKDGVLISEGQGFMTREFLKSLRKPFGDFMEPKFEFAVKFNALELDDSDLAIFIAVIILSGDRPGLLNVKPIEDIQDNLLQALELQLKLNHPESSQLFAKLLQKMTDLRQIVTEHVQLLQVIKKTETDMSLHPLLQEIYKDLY
Chain of Peroxisome proliferator-activated receptor gamma/Nuclear receptor coactivator 2 (Q15596 whole entry, further chain): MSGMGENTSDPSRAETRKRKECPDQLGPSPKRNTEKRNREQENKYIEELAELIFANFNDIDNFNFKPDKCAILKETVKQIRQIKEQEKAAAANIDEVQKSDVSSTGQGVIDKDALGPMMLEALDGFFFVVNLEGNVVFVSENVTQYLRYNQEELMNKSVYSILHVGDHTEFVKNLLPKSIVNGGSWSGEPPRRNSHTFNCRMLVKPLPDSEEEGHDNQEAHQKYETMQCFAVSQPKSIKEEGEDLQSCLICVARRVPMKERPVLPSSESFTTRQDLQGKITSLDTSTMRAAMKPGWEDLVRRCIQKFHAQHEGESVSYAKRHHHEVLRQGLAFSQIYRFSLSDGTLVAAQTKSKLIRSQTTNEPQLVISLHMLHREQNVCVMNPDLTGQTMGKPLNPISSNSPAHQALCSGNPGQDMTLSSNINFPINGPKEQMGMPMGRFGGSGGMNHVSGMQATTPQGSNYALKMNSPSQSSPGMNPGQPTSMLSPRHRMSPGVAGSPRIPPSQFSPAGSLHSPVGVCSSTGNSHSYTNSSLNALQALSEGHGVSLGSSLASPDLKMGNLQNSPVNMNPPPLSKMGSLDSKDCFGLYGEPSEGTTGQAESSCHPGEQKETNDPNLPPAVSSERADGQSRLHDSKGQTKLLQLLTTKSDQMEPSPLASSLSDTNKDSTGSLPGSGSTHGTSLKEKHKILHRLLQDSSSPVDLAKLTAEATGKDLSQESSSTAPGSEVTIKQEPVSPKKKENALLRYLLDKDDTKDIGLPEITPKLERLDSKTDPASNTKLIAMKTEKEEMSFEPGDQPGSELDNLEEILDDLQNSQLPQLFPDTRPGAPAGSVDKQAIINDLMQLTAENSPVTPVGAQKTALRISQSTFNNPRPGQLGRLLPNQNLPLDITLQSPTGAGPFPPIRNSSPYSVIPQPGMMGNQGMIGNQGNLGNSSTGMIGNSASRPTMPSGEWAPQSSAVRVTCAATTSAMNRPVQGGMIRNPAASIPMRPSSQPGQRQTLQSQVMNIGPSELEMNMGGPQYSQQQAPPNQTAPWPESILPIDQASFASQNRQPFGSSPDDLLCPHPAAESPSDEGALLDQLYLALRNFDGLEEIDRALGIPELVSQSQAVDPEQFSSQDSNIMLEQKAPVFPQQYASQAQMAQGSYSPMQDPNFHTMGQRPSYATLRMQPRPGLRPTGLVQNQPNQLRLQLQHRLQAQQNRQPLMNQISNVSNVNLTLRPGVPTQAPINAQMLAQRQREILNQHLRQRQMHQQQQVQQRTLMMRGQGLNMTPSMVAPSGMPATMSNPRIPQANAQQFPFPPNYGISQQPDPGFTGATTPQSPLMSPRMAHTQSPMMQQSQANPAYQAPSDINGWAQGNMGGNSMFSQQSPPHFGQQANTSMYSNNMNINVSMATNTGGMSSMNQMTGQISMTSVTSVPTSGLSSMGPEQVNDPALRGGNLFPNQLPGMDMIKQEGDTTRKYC
Chain of Peroxisome proliferator-activated receptor gamma/Nuclear receptor coactivator 1 (P37231 whole entry): as the sequence (P37231 whole entry) above
Chain of Peroxisome proliferator-activated receptor gamma/Nuclear receptor coactivator 1 (Q15788 whole entry, further chain): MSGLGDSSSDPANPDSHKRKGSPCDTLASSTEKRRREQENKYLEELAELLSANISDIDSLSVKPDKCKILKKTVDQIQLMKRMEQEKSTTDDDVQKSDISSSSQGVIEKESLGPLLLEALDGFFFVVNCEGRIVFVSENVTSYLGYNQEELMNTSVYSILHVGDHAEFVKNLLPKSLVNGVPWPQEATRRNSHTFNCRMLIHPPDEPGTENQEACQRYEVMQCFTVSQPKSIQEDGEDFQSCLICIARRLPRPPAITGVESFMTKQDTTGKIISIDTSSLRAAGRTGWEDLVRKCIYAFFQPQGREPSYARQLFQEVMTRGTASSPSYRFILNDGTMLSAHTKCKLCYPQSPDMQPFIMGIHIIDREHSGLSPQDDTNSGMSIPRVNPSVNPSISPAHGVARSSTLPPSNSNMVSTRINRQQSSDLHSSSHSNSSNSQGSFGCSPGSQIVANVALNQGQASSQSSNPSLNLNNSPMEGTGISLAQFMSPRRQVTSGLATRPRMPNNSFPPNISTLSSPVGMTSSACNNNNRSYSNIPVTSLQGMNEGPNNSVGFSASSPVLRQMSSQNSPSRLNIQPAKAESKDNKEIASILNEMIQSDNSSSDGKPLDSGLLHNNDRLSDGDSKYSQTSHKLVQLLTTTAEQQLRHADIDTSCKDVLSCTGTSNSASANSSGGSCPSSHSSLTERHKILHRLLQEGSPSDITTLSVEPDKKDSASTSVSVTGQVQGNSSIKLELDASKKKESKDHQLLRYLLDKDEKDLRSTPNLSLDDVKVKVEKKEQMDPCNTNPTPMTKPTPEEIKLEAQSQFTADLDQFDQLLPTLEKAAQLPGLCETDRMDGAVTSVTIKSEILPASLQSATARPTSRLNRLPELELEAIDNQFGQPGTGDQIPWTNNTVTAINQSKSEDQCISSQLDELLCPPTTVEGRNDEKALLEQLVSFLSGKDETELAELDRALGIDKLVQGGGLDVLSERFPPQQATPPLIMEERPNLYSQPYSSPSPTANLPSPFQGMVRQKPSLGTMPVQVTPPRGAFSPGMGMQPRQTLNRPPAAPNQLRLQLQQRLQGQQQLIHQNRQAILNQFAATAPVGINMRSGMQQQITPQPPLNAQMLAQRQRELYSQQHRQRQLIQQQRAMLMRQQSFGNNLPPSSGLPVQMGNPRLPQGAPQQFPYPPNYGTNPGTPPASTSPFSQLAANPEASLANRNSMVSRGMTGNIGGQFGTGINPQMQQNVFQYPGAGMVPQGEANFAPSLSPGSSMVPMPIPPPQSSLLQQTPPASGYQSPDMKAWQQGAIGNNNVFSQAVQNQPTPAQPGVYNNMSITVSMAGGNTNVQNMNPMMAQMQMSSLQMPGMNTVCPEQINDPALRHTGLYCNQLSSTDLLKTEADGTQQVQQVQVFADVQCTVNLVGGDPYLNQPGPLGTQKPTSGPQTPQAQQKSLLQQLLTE
Chain of G-protein coupled receptor 55 (Q9Y2T6 whole entry): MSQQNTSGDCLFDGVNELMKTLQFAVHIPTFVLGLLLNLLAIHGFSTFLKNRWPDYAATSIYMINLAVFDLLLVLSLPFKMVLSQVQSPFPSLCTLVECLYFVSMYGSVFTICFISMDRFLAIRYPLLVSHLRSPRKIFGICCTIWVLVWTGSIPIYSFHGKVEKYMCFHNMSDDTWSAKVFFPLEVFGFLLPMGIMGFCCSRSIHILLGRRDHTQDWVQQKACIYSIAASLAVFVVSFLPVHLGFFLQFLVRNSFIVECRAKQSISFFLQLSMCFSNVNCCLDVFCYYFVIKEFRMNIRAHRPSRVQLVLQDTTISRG

`CCn1cc(CNCc2cn(C)nc2-c2ccc(C3CCCCC3)cc2)cn1`: the EC50 in [1], in experiment [2] and in experiment [3] was > 79.4 µM (not active) each time.

In the case of `CCOC(=O)N1CCN(CC(=O)Nc2cc(OCC)ccc2OCC)CC1`, the 50% inhibitory concentration (IC50) in [4] and in experiment [5] was > 100 µM (not active) each time.

For the compound `COc1ccc(C(c2c(O)ccc3ccccc23)N2CCOCC2)c(OC)c1` (stereo not drawn), the EC50 in experiment [6] is > 180 µM (inactive); in [7], 3.89 µM (active); in [8], 1.82 µM (active); in experiment [9], > 160 µM (inactive); in [11], 12.5 µM (active); in experiment [12] it was 4.07 µM (active). For the same compound, the half-maximal effective concentration (EC50) in [13] was 11.6 µM (active). Further, the half-inhibitory concentration (IC50) in experiment [10] was 1.62 µM (active). Moreover, the CC50 in the experiment with HeLa is reported as 44.3 µM (not active).

As for `O=C(CCCn1c(=S)[nH]c2ccccc2c1=O)N1CCN(c2cccc(Cl)c2)CC1`, the half-maximal inhibitory concentration (IC50) at Estrogen receptor beta was > 50 µM (not active); on Estrogen receptor [14] it was 5.73 µM (active); on Estrogen receptor [15], 0.12 µM (not active).

As for `Cc1ccc(C(=O)Nc2cccc(C(=O)O)c2)cc1`, the half-maximal effective concentration (EC50) in the experiment on HT-1080 was > 50 µM (not active); in experiment [17] it was 96.3 µM (active). Moreover, the AC50 was 1.38 µM (active) in experiment [16], 2.07 µM (active) in experiment [19], 4.84 µM (active) in experiment [20] and 7.9 µM (active) in experiment [21]. For the same compound, the IC50 in experiment [18] was > 80 µM (inactive).

In the case of `O=[N+]([O-])c1ccccc1NCCNc1ncc(C(F)(F)F)cc1Cl`, the concentration giving a half-maximal response (EC50) in [22] is > 150 µM (not active); with Streptococcus [23] it was > 150 µM (not active); at Streptokinase A, 5.57 µM (active); in the experiment with Streptococcus [25], > 500 µM (not active). Further, the IC50 in experiment [24] is given as 16.8 µM (not active); in experiment [26], 23.5 µM (not active).

Turning to `O=C(/C=C/c1cccnc1)/C=C/c1cccnc1`, the EC50 in [27] was > 49.7 µM (not active); on Wee1-like protein kinase it was > 1.84 µM (active). Besides, the IC50 in experiment [28] is 3.26 µM (active).

For orientation: EC50 means the concentration giving half of the maximal effect. As a reminder, the IC50 is the concentration that inhibits the measured activity by half. Broadly, the CC50 is the concentration giving 50% cytotoxicity. Low readings indicate harm at low concentration, high ones better tolerance by the cells. A word on the AC50: it is the concentration giving half of the maximal activity seen.
